Laboratory results published in ChEMBL document CHEMBL1201862, “PubChem BioAssay data set” (2004).
Activity calls are given as the source filed them.

How the values were obtained:
[1] = target: Genome polyprotein (dengue virus type 2, UniProt P29990); test: Dengue-2 NS5 methyltransferase inhibitors, primary screen, biochemical, confirmation dose response (AID 588689); type: functional
[2] = inhibitors of firefly luciferase expression or activity, dose response, H4 neuroglioma cells, luminescence (AID 1990); type: functional, cell-based
[3] = inhibitors of SNCA 5'UTR-driven reporter translation, confirmation, H4 neuroglioma cells, luminescence (AID 1988); type: functional, cell-based
[4] = Luminescence Cell-Based Dose Response HTS to Identify Inhibitors of 5'UTR Stem-Loop Driven Prion Protein mRNA Translation in H4 Neuroglioblastoma Cells. [Related pubchem assays: 1827 (Project Summary), 1813 (Primary HTS)]; type: functional
[5] = target: T1, Carboxy-terminal domain RNA polymerase II polypeptide A small phosphatase 1 (Homo sapiens, UniProt Q9GZU7); test: inhibitors of CTDSP1, concentration-response testing, biochemical assay, absorbance-based, actives from ultra-high-throughput screening (AID 540297); type: functional
T1 sequence (Q9GZU7 whole entry): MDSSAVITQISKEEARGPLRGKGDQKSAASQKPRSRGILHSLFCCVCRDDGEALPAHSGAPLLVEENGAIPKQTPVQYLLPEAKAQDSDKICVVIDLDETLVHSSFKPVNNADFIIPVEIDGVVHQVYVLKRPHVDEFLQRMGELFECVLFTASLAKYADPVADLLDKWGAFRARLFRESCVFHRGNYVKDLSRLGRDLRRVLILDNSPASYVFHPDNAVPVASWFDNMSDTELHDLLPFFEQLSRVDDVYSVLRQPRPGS

[6] = target: T2, Protein skinhead-1 (Caenorhabditis elegans, UniProt P34707); type: functional
T2 sequence (P34707 whole entry): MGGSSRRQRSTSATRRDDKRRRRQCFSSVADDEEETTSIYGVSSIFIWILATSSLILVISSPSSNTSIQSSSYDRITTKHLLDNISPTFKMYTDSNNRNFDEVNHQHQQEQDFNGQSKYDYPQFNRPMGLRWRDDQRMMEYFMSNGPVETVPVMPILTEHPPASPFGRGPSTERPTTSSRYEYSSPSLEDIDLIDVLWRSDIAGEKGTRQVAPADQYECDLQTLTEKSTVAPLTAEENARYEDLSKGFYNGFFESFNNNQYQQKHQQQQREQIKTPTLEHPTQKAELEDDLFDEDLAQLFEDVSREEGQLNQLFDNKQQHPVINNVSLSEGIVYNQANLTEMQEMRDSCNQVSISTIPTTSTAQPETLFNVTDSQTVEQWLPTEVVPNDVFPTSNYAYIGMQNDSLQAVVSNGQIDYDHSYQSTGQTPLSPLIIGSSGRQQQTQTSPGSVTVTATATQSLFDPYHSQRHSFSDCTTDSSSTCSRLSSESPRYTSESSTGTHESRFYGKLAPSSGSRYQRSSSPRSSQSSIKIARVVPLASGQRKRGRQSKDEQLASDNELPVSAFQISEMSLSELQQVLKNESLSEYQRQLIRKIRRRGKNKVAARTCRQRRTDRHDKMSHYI

[7] = target: T3, Replicative DNA helicase DnaB (Mycobacterium tuberculosis, UniProt P9WMR3); test: DnaB intein splicing inhibitors, dose response, biochemical, cell-free fluorescence (AID 449749); type: functional
T3 sequence (P9WMR3 whole entry): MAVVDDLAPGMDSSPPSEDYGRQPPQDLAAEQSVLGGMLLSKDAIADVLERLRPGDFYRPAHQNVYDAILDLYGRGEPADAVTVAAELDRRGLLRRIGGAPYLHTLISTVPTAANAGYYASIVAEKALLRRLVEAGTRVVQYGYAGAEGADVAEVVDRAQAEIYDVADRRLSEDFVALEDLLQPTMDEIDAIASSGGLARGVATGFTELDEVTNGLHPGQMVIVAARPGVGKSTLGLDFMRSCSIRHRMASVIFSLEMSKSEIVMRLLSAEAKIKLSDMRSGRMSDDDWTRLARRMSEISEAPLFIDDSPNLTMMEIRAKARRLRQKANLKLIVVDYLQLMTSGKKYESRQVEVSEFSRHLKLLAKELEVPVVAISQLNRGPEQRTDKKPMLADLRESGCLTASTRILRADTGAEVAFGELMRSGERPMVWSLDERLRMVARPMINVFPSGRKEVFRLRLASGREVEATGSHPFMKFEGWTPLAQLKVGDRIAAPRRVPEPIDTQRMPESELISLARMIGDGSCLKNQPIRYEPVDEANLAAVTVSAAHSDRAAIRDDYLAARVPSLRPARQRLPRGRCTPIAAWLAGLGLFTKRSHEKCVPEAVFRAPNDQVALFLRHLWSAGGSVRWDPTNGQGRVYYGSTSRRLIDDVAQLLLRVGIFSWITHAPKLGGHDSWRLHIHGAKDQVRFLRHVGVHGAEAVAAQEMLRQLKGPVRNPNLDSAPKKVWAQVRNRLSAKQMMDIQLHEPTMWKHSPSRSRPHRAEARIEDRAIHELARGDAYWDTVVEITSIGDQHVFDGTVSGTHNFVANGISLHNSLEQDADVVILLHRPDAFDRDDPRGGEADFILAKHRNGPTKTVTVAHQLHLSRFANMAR

[8] = target: T4, Protein RecA (Mycobacterium tuberculosis, UniProt P9WHJ3); test: Fluorescence Cell-Free Homogeneous Dose Retest to Identify Inhibitors of RecA-Intein Splicing Activity. [Related pubchem assays (depositor defined):AID2097, AID2223, AID489010, AID492950]; type: functional
T4 sequence (P9WHJ3 whole entry): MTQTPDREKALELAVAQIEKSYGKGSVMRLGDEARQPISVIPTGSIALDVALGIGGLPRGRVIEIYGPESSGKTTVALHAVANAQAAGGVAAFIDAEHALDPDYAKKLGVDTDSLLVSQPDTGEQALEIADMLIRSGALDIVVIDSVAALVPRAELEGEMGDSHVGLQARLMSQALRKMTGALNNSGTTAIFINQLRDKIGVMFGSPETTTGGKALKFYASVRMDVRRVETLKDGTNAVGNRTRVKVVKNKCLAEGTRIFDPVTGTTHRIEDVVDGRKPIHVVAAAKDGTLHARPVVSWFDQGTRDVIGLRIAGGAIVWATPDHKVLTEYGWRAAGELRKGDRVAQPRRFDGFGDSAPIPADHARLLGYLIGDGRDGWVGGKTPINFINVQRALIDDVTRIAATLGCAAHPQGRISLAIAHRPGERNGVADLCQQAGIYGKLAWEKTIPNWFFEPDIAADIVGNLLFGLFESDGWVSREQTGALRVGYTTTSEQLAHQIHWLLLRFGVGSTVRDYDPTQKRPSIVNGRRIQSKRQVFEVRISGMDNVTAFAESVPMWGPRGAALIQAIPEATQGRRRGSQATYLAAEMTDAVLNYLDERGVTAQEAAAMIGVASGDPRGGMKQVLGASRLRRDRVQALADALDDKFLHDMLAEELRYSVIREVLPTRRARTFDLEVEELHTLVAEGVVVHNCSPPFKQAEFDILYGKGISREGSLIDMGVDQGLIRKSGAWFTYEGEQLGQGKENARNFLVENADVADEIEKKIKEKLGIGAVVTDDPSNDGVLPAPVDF

[9] = Luminescence Cell-Based Dose Response HTS to Identify Activators of Luciferase Translation or Activity in H4 […] Cells. [Related pubchem assays: 1829 (Project Summary), 1814 (Primary HTS)]; type: functional
[10] = target: T5, Cytochrome P450 1A2 (Homo sapiens, UniProt P05177);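 further: PubChem cytochrome P450 panel assay, CYP1A2 panel member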
T5 sequence (P05177 whole entry): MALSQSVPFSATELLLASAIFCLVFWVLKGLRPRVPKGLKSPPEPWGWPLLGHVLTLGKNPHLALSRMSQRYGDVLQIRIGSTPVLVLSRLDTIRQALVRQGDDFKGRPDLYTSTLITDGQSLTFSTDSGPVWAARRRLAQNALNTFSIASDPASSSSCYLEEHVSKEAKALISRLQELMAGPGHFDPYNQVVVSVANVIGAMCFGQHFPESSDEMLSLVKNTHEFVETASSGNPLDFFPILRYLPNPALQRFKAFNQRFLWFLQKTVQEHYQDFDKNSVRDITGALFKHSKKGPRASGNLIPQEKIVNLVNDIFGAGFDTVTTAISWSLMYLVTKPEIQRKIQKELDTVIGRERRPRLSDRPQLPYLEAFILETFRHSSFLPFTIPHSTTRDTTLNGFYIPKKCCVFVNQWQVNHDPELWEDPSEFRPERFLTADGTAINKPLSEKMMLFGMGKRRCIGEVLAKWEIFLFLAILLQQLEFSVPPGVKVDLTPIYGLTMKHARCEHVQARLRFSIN

[11] = target: Cytochrome P450 2C9 (Homo sapiens, UniProt P11712)
[12] = target: Cytochrome P450 2D6 (Homo sapiens, UniProt P10635);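 further: CYP2D6 member of a cytochrome P450 panel assay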
[13] = target: Cytochrome P450 3A4 (Homo sapiens, UniProt P08684);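 further: CYP3A4 tested as one member of a cytochrome P450 panel screen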
Cytochrome P450 3A4, sequence (P08684 whole entry): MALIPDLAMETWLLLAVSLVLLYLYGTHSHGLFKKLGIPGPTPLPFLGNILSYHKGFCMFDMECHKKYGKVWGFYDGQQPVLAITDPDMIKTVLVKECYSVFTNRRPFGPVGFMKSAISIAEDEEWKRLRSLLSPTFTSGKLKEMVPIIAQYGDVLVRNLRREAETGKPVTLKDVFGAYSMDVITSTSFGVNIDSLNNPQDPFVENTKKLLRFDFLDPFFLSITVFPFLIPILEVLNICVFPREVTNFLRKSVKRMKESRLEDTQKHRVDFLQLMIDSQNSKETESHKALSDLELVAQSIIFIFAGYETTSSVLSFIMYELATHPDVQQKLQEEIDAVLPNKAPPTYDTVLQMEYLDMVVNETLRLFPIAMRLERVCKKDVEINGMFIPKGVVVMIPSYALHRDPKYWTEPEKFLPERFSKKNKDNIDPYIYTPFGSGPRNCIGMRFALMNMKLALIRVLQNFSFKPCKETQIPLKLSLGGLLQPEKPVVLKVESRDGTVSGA

Genome polyprotein, sequence (P29990 2492-3391 limits assumed): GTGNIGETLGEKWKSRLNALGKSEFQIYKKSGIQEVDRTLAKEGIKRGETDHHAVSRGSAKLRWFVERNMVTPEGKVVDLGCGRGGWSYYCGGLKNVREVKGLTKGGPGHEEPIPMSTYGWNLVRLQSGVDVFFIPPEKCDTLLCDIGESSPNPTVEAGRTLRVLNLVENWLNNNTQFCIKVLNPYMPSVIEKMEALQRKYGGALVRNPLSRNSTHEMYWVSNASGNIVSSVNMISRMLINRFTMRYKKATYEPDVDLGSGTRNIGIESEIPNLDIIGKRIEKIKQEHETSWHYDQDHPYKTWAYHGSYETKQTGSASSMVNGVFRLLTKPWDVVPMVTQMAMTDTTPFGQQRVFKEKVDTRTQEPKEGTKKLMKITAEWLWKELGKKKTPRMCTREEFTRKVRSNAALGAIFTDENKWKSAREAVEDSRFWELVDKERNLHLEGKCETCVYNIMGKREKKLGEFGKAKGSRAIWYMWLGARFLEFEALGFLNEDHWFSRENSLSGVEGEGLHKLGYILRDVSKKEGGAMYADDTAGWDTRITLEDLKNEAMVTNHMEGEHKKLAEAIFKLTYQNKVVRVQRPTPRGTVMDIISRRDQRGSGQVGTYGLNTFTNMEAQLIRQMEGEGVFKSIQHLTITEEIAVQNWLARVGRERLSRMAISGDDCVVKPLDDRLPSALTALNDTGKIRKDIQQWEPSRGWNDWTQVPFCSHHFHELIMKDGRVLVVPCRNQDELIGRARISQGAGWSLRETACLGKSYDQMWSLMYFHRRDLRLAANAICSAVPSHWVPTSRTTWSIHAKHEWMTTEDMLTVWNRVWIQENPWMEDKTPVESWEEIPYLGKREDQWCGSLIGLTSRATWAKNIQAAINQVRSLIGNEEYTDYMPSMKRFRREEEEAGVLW
Cytochrome P450 2C9, sequence (P11712 whole entry): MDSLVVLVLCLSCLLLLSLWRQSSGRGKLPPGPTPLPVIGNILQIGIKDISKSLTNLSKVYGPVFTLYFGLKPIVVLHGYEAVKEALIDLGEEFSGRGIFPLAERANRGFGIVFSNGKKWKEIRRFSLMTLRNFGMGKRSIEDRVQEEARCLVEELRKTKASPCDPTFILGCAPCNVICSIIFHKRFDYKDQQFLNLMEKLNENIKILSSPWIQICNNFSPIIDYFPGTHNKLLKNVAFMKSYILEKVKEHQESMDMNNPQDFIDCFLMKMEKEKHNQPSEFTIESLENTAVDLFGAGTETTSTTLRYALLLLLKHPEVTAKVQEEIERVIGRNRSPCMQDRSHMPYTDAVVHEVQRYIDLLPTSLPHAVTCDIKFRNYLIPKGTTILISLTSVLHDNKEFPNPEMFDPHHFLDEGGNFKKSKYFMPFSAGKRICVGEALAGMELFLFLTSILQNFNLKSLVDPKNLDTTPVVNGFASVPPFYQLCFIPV
Cytochrome P450 2D6, sequence (P10635 whole entry): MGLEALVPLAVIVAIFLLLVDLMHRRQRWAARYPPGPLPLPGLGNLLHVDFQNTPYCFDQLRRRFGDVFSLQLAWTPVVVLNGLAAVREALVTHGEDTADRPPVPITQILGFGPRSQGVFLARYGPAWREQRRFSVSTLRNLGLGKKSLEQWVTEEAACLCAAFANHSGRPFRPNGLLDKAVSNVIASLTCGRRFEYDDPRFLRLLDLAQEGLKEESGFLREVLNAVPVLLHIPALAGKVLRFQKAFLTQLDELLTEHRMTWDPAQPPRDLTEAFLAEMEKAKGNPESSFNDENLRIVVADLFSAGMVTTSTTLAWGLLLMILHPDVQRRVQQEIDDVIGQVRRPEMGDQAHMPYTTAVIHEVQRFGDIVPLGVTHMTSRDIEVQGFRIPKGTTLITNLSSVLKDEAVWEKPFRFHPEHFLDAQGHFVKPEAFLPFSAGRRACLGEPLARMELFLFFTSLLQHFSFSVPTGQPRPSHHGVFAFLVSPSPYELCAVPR

CCc1sc(/C=C(/C#N)C(N)=S)cc1[N+](=O)[O-]
IC50 [1]: 33.9 µM (active)

N#Cc1cnn2c1nc(N1CCCCC1)c1ccccc12
EC50 [2]: 10.6 µM (active) | EC50 [3]: 12.7 µM (active) | EC50 [4]: 11.3 µM (active)

Clc1nc(Cl)nc(-c2cn(-c3ccccc3)c3ccccc23)n1
IC50 [5]: 7.98 µM (active)

Cc1cc(C)cc(NC(=S)N(Cc2ccc(Cl)cc2)Cc2ccc(C(=O)O)cc2)c1
IC50 [1]: 92.1 µM (active)

O=C(Nc1ccc(Cl)cc1Cl)c1ccc(Br)o1
IC50 [6]: > 100 µM (inactive)

Cc1ccccc1NC(=O)C(=O)NNC(=O)COc1ccc2ccccc2c1
IC50 [5]: 13.1 µM (active)

O=C(/C=C/c1ccccc1)Nc1ccc(CN2CCOCC2)cc1
IC50 [6]: 11.4 µM (active)

O=C1c2ccccc2OC2(C=Cc3ccccc3O2)N1Cc1ccccc1 (stereo not given)
AC50 [7]: 2.83 µM (active) | EC50 [8]: 166 µM (active) | IC50 [6]: > 100 µM (inactive)

Oc1nncc(NCCc2ccccc2)c1Cl
EC50 [2]: 6.91 µM (active) | EC50 [3]: 14.2 µM (active) | EC50 [4]: 25.9 µM (active)

CCSc1nn2c(=O)c3ccccc3nc2s1
EC50 [9]: 0.23 µM (active)

COc1cc(/C=C2/C(=O)NN(c3ccc(C)c(Cl)c3)C2=O)cc([N+](=O)[O-])c1O
IC50 [5]: 6.75 µM (active)

O=C(Nc1ccccc1)c1cc2ccccc2c(=O)s1
EC50 [9]: 6.73 µM (active)

CC1CCCC(C)N1C(=O)COC(=O)/C=C/c1ccc(Br)o1 (stereo not given)
IC50 [5]: 19.1 µM (active)

O=C(c1ccc(-c2cccc(C(F)(F)F)c2)o1)N1CCOCC1
IC50 [6]: > 100 µM (inactive)

O=C(CCN1C(=O)/C(=C\c2ccccc2F)SC1=S)Nc1ccc(C(=O)O)c(O)c1
IC50 [1]: 32.5 µM (active) | AC50 [7]: 11.4 µM (active) | EC50 [8]: 15.2 µM (active)

COc1ccc(OCCn2cc(/C=C(\C#N)C(=O)NCc3ccco3)c3ccccc32)cc1
EC50 [2]: 16.1 µM (active) | EC50 [3]: 13.3 µM (active) | EC50 [4]: 27.8 µM (active)

COc1ccc(N2CCN(C(=O)C3CCCN3S(=O)(=O)c3cccc4nsnc34)CC2)cc1 (stereo not given)
EC50 [2]: > 120 µM (not active) | EC50 [3]: > 120 µM (not active) | EC50 [4]: > 120 µM (not active)

O=C1CS/C(=C\[N+](=O)[O-])N1c1ccc(OC(F)(F)F)cc1
AC50 [10]: 6.31 µM (inconclusive) | AC50 [11]: 15.8 µM (inconclusive) | AC50 [7]: 219 µM (active) | EC50 [8]: 10.9 µM (active) | AC50 [12]: 15.8 µM (inconclusive)

Cc1cc(N)ccc1-n1nc2ccccc2n1
EC50 [2]: 22.4 µM (active) | EC50 [3]: 35.7 µM (active) | EC50 [4]: 36.4 µM (active)

OCCN1CCN(CC/C=C2/c3ccccc3CSc3ccccc32)CC1
EC50 [2]: > 120 µM (not active) | EC50 [3]: > 120 µM (not active) | EC50 [4]: > 120 µM (not active)

COc1ccc(N2CCN(C(S)=Nc3cc(C)cc(C)c3)CC2)cc1
AC50 [13]: 2.51 µM (inconclusive) | EC50 [2]: > 120 µM (not active) | EC50 [3]: > 120 µM (not active) | EC50 [4]: > 120 µM (not active)

C=C(C)c1cccc(C(C)(C)NC(=O)N2CCN(c3ncccn3)CC2)c1
IC50 [6]: > 100 µM (inactive)

O=C1c2ccccc2C(=O)c2c(NCc3cccnc3)cccc21
IC50 [6]: > 100 µM (inactive)

CC1(C)C(=O)Nc2ccccc2N1C(=O)COc1ccccc1C#N
IC50 [5]: 13.2 µM (active)

Cc1cc2c(SCC(=O)Nc3cccc(O)c3)ncnc2s1
IC50 [5]: 6.88 µM (active)

CC(=O)c1ccc(NC(=O)CN2C(=O)COc3ccc(S(=O)(=O)N4CCCC4)cc32)cc1
IC50 [5]: 6.65 µM (active)

CCOC(=O)C(C)C1(O)c2ccccc2-c2ncccc21 (stereo not given)
IC50 [6]: > 100 µM (inactive)

Cc1ccc(C=Cc2ccccn2)cc1
IC50 [6]: 33.9 µM (active)

Cn1/c(=N/C(=O)C2=NNC(=O)CC2)sc2ccccc21
EC50 [2]: > 120 µM (not active) | EC50 [3]: > 120 µM (not active) | EC50 [4]: > 120 µM (not active)

CC(O)CC(=O)O (stereo not drawn) [3-HYDROXYBUTYRIC ACID, (+/-)-]
IC50 [6]: > 100 µM (inactive)
